Measured values taken from the METLIN SMRT retention time set (Domingo-Almenara et al. 2019).

Test: gradient 5% acetonitrile 3 min, to 50% in 2 min, to 85% in 15 min, held 3 min, 100 µL/min
Details: column: Zorbax Extend-C18 2.1 x 50 mm; eluents: water / acetonitrile, 0.1% formic acid
In short: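 Data were gathered over 3 months by HPLC coupled to a quadrupole time-of-flight mass spectrometer, operated in positive and negative ionization mode. Mixtures of ~100 pure standards ran on a Zorbax Extend-C18 column (2.1 × 50 mm, 1.8 μm) at 100 μL/min, with water and acetonitrile each containing 0.1% formic acid and dead and dwell volumes of 40 μL and 900 μL. Retention time was read from adduct peaks picked by computer and checked manually.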

Row | Compound | RP-LC retention time
1 | O=C(Cn1nc2n(c1=O)CCCC2)Nc1ccc(Br)cc1 | 703 s
2 | CC(C(=O)N1CCC(N2CCc3ccccc32)CC1)c1ccccc1 (stereo unspecified) | 1010 s
3 | O=S(=O)(c1ccc(Br)cc1)N1CCCC(COCc2ccccc2)C1 (stereo unspecified) | 1220 s
4 | O=C(NC1CCCCCCC1)C1CCN(C(=O)c2ccccc2F)CC1 | 855 s
5 | CCCNC(=O)N1[C@H]2CC[C@@H]1c1cnc(-c3ccccc3)nc1C2 | 790 s
6 | Cc1cccc(-c2c3c(=O)n(C)c(=O)n(C)c3c3n2CCOC3c2c(C)n(C)c(=O)n(C)c2=O)c1 (stereo unspecified) | 746 s
7 | O=C(C1CCN(c2ncnc3c2oc2ccccc23)CC1)N1CCCC1 | 654 s
8 | CCCn1nc(CNC(=O)c2ccc(C#N)cc2)c2ccccc21 | 844 s
9 | CCCN(C)c1nccn2c(=O)n(CC(=O)Nc3cccc(Br)c3)nc12 | 730 s
10 | O=C(O)C1CCN(c2ncnc3nc[nH]c23)CC1 | 548 s
11 | O=C(CN1CCN(C(=O)CCc2ccccc2)CC1)c1cccs1 | 550 s
12 | CCn1cc(S(=O)(=O)N2CC(N(Cc3cccnc3)CC(C)C)C2)cn1 | 592 s
13 | O=C(Nc1ccc(-n2cnc(C(=O)N3CCC4(CC3)OCCO4)c2)nc1)C1CC1 | 631 s
14 | Cc1ccccc1OCC(=O)N1CCN(c2nc(CN3CCCCC3)cs2)CC1 | 895 s
15 | O=C(Nc1ncnc2sccc12)c1ccc([N+](=O)[O-])o1 | 664 s
16 | Cc1ccc(/C=C2\CCOC2=O)cc1 | 916 s
17 | O=C(NCC1CCN(C(=O)c2cc3ccccc3o2)CC1)C(=O)NCC1CCCO1 (stereo unspecified) | 691 s
18 | COc1cccc(S(=O)(=O)Nc2ccc3c(c2)CCC(=O)N3CC(C)C)c1 | 868 s
19 | CCCCN1CCC(F)(c2nc(-c3ccccc3)no2)CC1 | 691 s
20 | CCOCCCNC(=O)C1CCN(c2cc(=O)n(C)c(=O)n2CC)CC1 | 686 s
21 | O=C1c2ccccc2C(=O)N1c1ccc(OC(F)(F)F)cc1 | 954 s
22 | CCn1c(C)c(C(=O)CN(CC2CCCO2)C(=O)c2ccc(Cl)cc2)c(C)c1C(=O)OC (stereo unspecified) | 978 s
23 | CC(C)c1ccc(S(=O)(=O)N2CCCC2c2nc(-c3ccccc3)no2)cc1 (stereo unspecified) | 1250 s
24 | CCOC(=O)CCc1c(C)nn(-c2cc(N(C)C)ncn2)c1C | 834 s

Row | Compound | RP-LC retention time
25 | CN(C)c1nc(C(=O)N2CCN(c3ccc(F)cc3)CC2)nc2c1cnn2C | 739 s
26 | CCOC(=O)C1CCN(C(=O)CN2C(=O)C3CCCCN3c3ccc(C(=O)N(C)C)cc32)CC1 (stereo unspecified) | 732 s
27 | COCc1nn(C)c2c1CN(S(=O)(=O)c1cccc(C#N)c1)CC2 | 676 s
28 | CC1CCN(c2cnn(CC(=O)Nc3ccc4c(c3)CCC4)c(=O)c2Cl)CC1 | 1030 s
29 | CCCC(=O)NCc1nc(-c2ccccc2Cl)no1 | 755 s
30 | Cc1cc(C)cc(C(=O)N2CCCC(C(=O)NCCC3=CCCCC3)C2)c1 (stereo unspecified) | 980 s
31 | CCOc1ccc(C(=O)N2CCC(c3cc(N)on3)CC2)cc1 | 686 s
32 | CC1CCN(C(=O)c2nnc(-c3ccc(S(=O)(=O)N4CCC(C)CC4)cc3)o2)CC1 | 1120 s
33 | Cc1oc(-c2ccc(C(=O)N3CCN(c4ccccn4)CC3)cc2)nc1CN1CCc2ccccc21 | 766 s
34 | CCOC(=O)C(C)NC(=O)N1CCCN(C2=NS(=O)(=O)C(c3ccccc3)=C2C)CC1 (stereo unspecified) | 761 s
35 | CC(C(=O)N1CCN(C2CCCCC2)CC1)C1CCN(S(=O)(=O)c2cccs2)CC1 (stereo unspecified) | 664 s
36 | O=C(c1cc2ccccc2[nH]1)N1CCC2(CC1)N=C(c1ccc(Br)cc1)NO2 | 959 s
37 | NC(=O)c1oc2ccccc2c1NC(=O)C(=O)NCc1ccc2c(c1)OCO2 | 758 s
38 | CCN(CC)C(=O)c1cc2c(s1)CCC(C(=O)O)C2 (stereo unspecified) | 703 s
39 | c1ccc2c3c([nH]c2c1)CNCC3 | 703 s
40 | O=C1/C(=C\c2ccc(O)c(O)c2)Oc2cc(O)ccc21 | 710 s
41 | CC(C)n1c(=O)sc2cc(S(=O)(=O)N3CCC(C(=O)NCc4ccccn4)CC3)ccc21 | 660 s
42 | CC(C)CCN1CCC(N2CCN(S(=O)(=O)c3ccc(C(F)(F)F)cc3)CC2)C1=O (stereo unspecified) | 794 s
43 | O=C(CC1=CCCCC1)N1CCC(C2CCNC2)CC1 (stereo unspecified) | 602 s
44 | C[C@@H]1CN(C(=O)NCc2ccco2)C[C@H]1c1nc(-c2ccncc2)no1 | 676 s
45 | C=CCn1c(=O)c2ccccc2n(Cc2nc(-c3ccccc3Br)no2)c1=O | 1040 s
46 | COc1ccc(Cl)cc1S(=O)(=O)N1CCCN(c2ccc(=O)n(-c3ccccc3)n2)CC1 | 906 s
47 | O=C(N[C@H]1C[C@@H]2C[C@H]1CN2S(=O)(=O)c1cccc2nsnc12)c1ccccc1 | 722 s

Second part, the molecule after the results:

Row | RP-LC retention time | Compound
48 | 861 s | Cc1cc(OCC(=O)Nc2c(C)cccc2C)nc(N2CCN(c3ccccc3)CC2)n1
49 | 801 s | Cc1cccc(CNC(=O)c2cc3n(n2)CC(C)(C(=O)NCCC(C)C)N(C)C3=O)c1 (stereo unspecified)
50 | 625 s | COCc1cc(=O)n(CC(=O)NCc2ccc(F)c(Cl)c2)c(N)n1
51 | 609 s | Cc1cc(=O)n(CC(=O)Nc2ccc(Br)cc2)c(N)n1
52 | 659 s | Cc1cccc(S(=O)(=O)Nc2ccc(-c3cn4ccc(C)nc4n3)cc2)c1
53 | 1170 s | Cc1ccc(-c2nc(-c3ccc4nnn(C)c4c3)no2)cc1C
54 | 1100 s | CCCCCn1c(=O)c2ccccc2n(Cc2nc(-c3cccc(Cl)c3)no2)c1=O
55 | 906 s | CC(C)c1ccc(OCC(=O)Nc2nnc(-c3ccc(Br)o3)o2)cc1
56 | 662 s | Cc1ccccc1NC(=O)Cn1cnc2c(c1=O)CCCC2
57 | 642 s | O=C(c1ccncc1)N1CCCn2nc(-c3cccs3)cc2C1
58 | 887 s | O=C(Nc1ccc(F)c(F)c1)c1cc2n(n1)CCCC2
59 | 628 s | CN(C)CCNC(=O)c1c(-c2ccccc2)c(-c2ccccc2)nn(C)c1=O
60 | 817 s | CCN(C(=O)CN1C(=O)NC(c2ccc(C)cc2)C2=C1COC2=O)c1cccc(C)c1 (stereo unspecified)
61 | 730 s | COc1ccc(CNC(=O)c2cn3ccc(C)cc3n2)c(OC)c1
62 | 1120 s | C=CCN1C(=O)COc2ccc(-c3csc(NC(=O)c4ccc(Br)cc4)n3)cc21
63 | 1060 s | COc1ccc(-c2nnc(-c3cccnc3NCc3cccc(OC)c3OC)o2)cc1
64 | 776 s | O=C(Nc1ccccc1Cl)N1CCC(N2CCN(Cc3ccc(F)cc3)C(=O)C2=O)CC1
65 | 923 s | CCc1nc(-c2ccc3c(c2)CCN3C(=O)Cc2ccc(OC)c(OC)c2)no1
66 | 719 s | CCOC(=O)c1nc(NCc2ccc3c(c2)OCO3)c2ccccc2n1
67 | 718 s | Cc1nc2ccn(Cc3ccco3)c(=O)c2cc1C(=O)NCc1ccco1
68 | 726 s | COc1nccnc1N1CCC(NC(=O)COc2ccc(F)cc2)C1 (stereo unspecified)
69 | 856 s | CCN1C(=O)c2cccnc2Sc2cc(NC(=O)Cc3ccccc3Cl)ccc21

Row | RP-LC retention time | Compound
70 | 858 s | COC(=O)c1ccc(N2C=C(C#N)S(=O)(=O)c3c(F)cccc32)cc1
71 | 1050 s | CCOc1ccc(NC(=O)c2cccc3ccccc23)c([N+](=O)[O-])c1
72 | 592 s | Cc1cc(N2CCN(C(=O)c3nccc4ccccc34)CC2)nc2nnc(C)n12
73 | 817 s | CC(=O)c1sc(NC(=O)c2cc(Cl)ccc2Cl)nc1C
74 | 1130 s | CCOc1ccc(-c2nc(-c3ccc4c(c3)oc(=O)n4C)no2)cc1
75 | 779 s | O=C(CN1C(=O)NC2(CCCCC2)C1=O)Nc1cc(F)ccc1F
76 | 1320 s | Cc1ccc(-c2noc(C3CCCN3S(=O)(=O)c3ccc(Cl)cc3C)n2)cc1 (stereo unspecified)
77 | 911 s | Cc1ccc(-c2cn3c(CC(=O)Nc4ccc(F)cc4Cl)csc3n2)cc1C
78 | 806 s | CSc1ccccc1NC(=O)c1cnc2ccc(C)cn2c1=O
79 | 784 s | O=C(NCCc1ccco1)c1nc(Nc2ccc(F)cc2)c2ccccc2n1
80 | 963 s | CCOc1ccccc1NC(=O)NCc1nc(-c2ccccc2)oc1C
81 | 679 s | Cn1cc(CCNC(=O)Nc2ccc(F)cc2)c2cccnc21
82 | 960 s | O=C(NCCC1=CCCCC1)c1nc(Nc2ccccc2)c2ccccc2n1
83 | 705 s | COCC(=O)NC1CCN(c2ccc(C)c(C)c2)C1=O (stereo unspecified)
84 | 733 s | CC(=O)Nc1nnc(SCC(=O)Nc2ccc(OC(F)(F)F)cc2)s1
85 | 1010 s | CCCC(C(=O)O)c1c(C)nc2ccc(Cl)cc2c1-c1ccccc1 (stereo unspecified)
86 | 701 s | Cc1ccn2cc(-c3ccc(NS(=O)(=O)c4ccc(I)cc4)cc3)nc2n1
87 | 672 s | Cc1ccn2c(NC(=O)c3ccc(F)cc3)c(-c3ccc(F)cc3)nc2c1
88 | 1150 s | CCn1ccc2c(cc(C(=O)Nc3cc(Cl)ccc3OC)n2C)c1=O
89 | 928 s | COC(=O)C1=CN(c2cccc(F)c2)c2cc(Br)ccc2S1(=O)=O
90 | 808 s | CN1c2ccc(Cl)cc2C(=O)NC12CCN(C(=O)c1cccc(F)c1)CC2
91 | 580 s | Cn1c(CN2CCN(C(=O)c3cc4ccccc4o3)CC2)nc2ccccc21
